Here are results for one molecule from article PMC7969469 (Cancer research, 2021).

Molecules are shown by their SMILES.

The test system of the assay is invadopodia formation. The assay can be described thus: Invadopodia formation with ROCK inhibitor. Type of assay: cell-based. The note with it: ROCK inhibition, Supplementary Figure S6C.

With `O=S(=O)(c1cccc2cnccc12)N1CCCNCC1` [Fasudil], the “effect on invadopodia formation” value was “affected neither”.
